Measured values as given in patent publication US20040209934A1, “Protein phosphate inhibitors” (priority 2001, published 2004).
Where two headings read alike, the source gives them in different places. *1 amine or outer side, *2 acyl side, *3 side chain or, on linkers, in order; H or OH if unused. Where a SMILES comes first, the peptide text is derived from it. Bridges are numbered along the chain shown (N, C = ends). [ ]: non-standard residue; d: D form. Adda = CO[C@@H](Cc1ccccc1)[C@@H](C)/C=C(C)/C=C/[C@H](N[*:1])[C@H](C)C(=O)[*:2]; dAsp(3S-Me) = C[C@H](C(=O)[*:3])[C@@H](N[*:1])C(=O)[*:2]; d(γGlu) = O=C(O)[C@@H](CCC(=O)[*:2])N[*:1]; NMeDha = C=C(NC)C(=O)O

Columns and labels:
[1] = biological target: PP2A (Homo sapiens, UniProt P67775); conditions: read-out: PP2A protein phosphatase inhibition (IC50), cited from earlier work
[2] = biological target: T1, PP1 (Homo sapiens, UniProt P62136); assay: Protein phosphatase assay with [32P]-glycogen phosphorylase a as substrate, PP1; type: biochemical; design: made in house
Experimental: (§1) Protein phosphatase assays were carried out essentially as described (Collins, E.; Sim, A. T. R.; Methods in Molecular Biology 1998, 93, 79-102) using [^32P]-glycogen phosphorylase a as substrate and recombinant PP1 (Bernt, N. Methods in Molecular Biology, 1998, 93, 67-78) or partially purified (chicken skeletal muscle) PP2A catalytic subunits (Mackintosh, C. In Protein Phosphorylation: A Practical Approach, Ed D G Hardie, IRL, 1993). Briefly, enzyme activity was measured at 30 ° C. in a buffer (final volume of […]) containing 50 mM Tris-HCl (pH 7.5), 1 mM EGTA, 0.1 mM EDTA, 5 mM Caffeine, 0.1% mercaptoethanol, 0.3 mg/mL BSA. The concentration of PP1 or PP2A used was such that the reaction was limited to 15% dephosphorylation to ensure linearity. The reaction was started with the addition of […] [^32P]-glycogen phosphorylase a and terminated after 20 minutes by the addition of […] ice-cold 70% TCA. After 10 minutes on ice the sample was centrifuged and a […] aliquot of the supematant was removed for scintillation counting of the [^32p] released during the reaction.

[3] = system: 143B (143BTK-, human oesteosarcoma); assay: cells; conditions: 72 h, read-out: Cytotoxicity IC50, 143B Ostesarcoma
Description: (§2) The cell lines chosen for study include both normal (non-cancer) and tumour-derived cell lines that represent both haematopoietic and solid tumor types with varying cell cycle control mechanisms (ie p53 status); CCD-18Co (normal human colon), L1210 (murine leukaemia, p53 mt), HL60 (human leukaemia, p53 nul), A2780 (human ovarian carcinoma, p53 wt), ADDP (cisplatin resistant A2780 cells, p53 mt), HCT116 (human colon carcinoma, p53 wt), SW480 (human colon carcinoma, p53 wt), WiDr (human colon carcinoma, p53 mt), HT29 (human colon carcinoma, p53 mt) and 143BTK-(human oesteosarcoma) cells.
(§3) The MTT assay can be used assess cytotoxicity. This assay determines cell viability by the ability of mitochondrial dehydrogenase to produce formazan crystals from 3-(4,5-dimethylthiazol-2-yl)2,5-diphenyltetrazolium bromide. The viable cell number/well is directly proportional to the production of formazan, which following solubilization, can be measured spectrophotometrically (540 nm). […] This technique is also used by the NCI(National Cancer Institute, USA) to screen for new anticancer agents. The MTT assay may be performed 72 h after exposure of the cells to varying doses of the phosphatase inhibitors. Since these agents are likely to interfere with the cell cycle it is important to test the cytotoxicity for at least two-three cell divisions.

[4] = system: A2780 (human ovarian carcinoma, p53 wt); assay: cells; conditions: A2780, 72 h, read-out: Cytotoxicity IC50, A2780 Ovarian
Description: as §2, §3

[5] = system: HL60 (human leukaemia, p53 nul); assay: cells; type: cell-based
Description: (§4) The MTT assay can be used assess cytotoxicity.

[6] = system: HT29 (human colon carcinoma, p53 mt); assay: cells; type: cell-based
Description: as §4

[7] = system: WiDr (human colon carcinoma, p53 mt); assay: cells; type: cell-based
Description: as §4

[8] = biological target: partially purified (chicken skeletal muscle) PP2A catalytic subunits (Gallus gallus, UniProt P48463); type: biochemical
Experimental: as §1

[9] = biological target: T1, PP1; conditions: read-out: PP1 protein phosphatase inhibition (IC50), cited from earlier work
[10] = system: ten difference cancer cell lines of ovarian, bone, colon and baematopoietic origin; assay: cells; conditions: read-out: Cytotoxicity IC50 values, range over ten cancer cell lines
[11] = system: HCT116 cells; assay: Cell cycle analysis (propidium iodide, flow cytometry); type: cell-based, human; conditions: Cantharidin 25 μM, 6 h
Description: The distribution of cells into the various phases of the cell cycle can be analysed by measuring the DNA content of the cells, via propidium iodide staining and subsequent flow cytometric analysis. Thus senescent cells (G0) and cells in the first gap (G1) of the cell cycle will have approximately half of the DNA content of cells about to under go mitosis (G2+M), while those cells synthesising DNA (S-phase) will have an intermediary DNA content. Using this technology, the effect of these new drugs on cells in the various phases of the cycle can be determined.

[12] = system: L1210 (murine leukaemia, p53 mt); assay: cells; type: cell-based; conditions: Mus musculus, Table 3, read-out: Cytotoxicity IC50, L1210
Description: as §4

[13] = system: SW480 (human colon carcinoma, p53 wt); assay: cells; type: cell-based; conditions: Table 3, read-out: Cytotoxicity IC50, SW480
Description: as §4

[14] = naturally occurring toxins, background Table 1
[15] = Table 2 cantharimides, average of three experiments in triplicate, read-out: PP1 Inhibition IC50
[16] = HL-60, 72 h exposure, background Table 2, read-out: Cytotoxicity IC50, HL60 Leukaemia
[17] = HT-29, 72 h exposure, background Table 2, read-out: Cytotoxicity IC50, HT29 Colon
[18] = 72 h exposure, background Table 2, read-out: Cytotoxicity IC50, WiDr Colon
[19] = Table 3 summary, read-out: PP1 Inhibition
[20] = HL-60, Table 3, read-out: Cytotoxicity IC50, HL60
[21] = HT-29, Table 3, read-out: Cytotoxicity IC50, HT29

PP2A, sequence (P67775 whole entry): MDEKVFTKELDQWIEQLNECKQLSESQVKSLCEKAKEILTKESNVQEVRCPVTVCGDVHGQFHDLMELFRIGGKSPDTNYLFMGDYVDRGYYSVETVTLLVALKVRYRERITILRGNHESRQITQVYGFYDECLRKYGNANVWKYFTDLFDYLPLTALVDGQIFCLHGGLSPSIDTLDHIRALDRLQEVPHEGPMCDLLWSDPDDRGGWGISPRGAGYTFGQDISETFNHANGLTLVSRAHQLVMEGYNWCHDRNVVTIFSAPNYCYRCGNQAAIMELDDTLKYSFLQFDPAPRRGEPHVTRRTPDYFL
T1 sequence (P62136 whole entry): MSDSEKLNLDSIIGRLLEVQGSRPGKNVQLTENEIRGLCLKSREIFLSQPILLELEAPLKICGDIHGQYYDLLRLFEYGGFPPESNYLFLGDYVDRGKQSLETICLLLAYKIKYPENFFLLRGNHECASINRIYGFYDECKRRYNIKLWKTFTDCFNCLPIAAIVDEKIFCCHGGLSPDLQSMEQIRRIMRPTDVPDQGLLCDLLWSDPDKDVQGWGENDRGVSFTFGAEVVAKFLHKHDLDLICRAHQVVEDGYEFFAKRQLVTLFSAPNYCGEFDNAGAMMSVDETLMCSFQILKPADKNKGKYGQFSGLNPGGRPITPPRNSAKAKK
partially purified (chicken skeletal muscle) PP2A catalytic subunits, sequence (P48463 whole entry): as the sequence (P67775 whole entry) above, with D2E, V5S, T7A, K21R, K29R, R108P counted along it

## C=C1[C@@H](O)[C@@H]2O[C@]3(CC[C@H](/C=C/[C@@H](C)[C@@H]4CC(C)=C[C@@]5(O[C@H](C[C@@](C)(O)C(=O)O)CC[C@H]5O)O4)O3)CC[C@H]2O[C@@H]1[C@@H](O)C[C@H](C)[C@H]1O[C@@]2(CCCCO2)CC[C@H]1C [Okadaic acid]
[1]; [14]
  IC50: 0.51 nM

## CC[C@@H](C)[C@H](C(=O)O)N1C(=O)C2C3CCC(O3)C2C1=O (stereo partly shown) [Compound 10]
[2]; [15]
  IC50: > 1000 µM

## CCCOC(=O)C1C(C(=O)O)[C@@H]2CC[C@H]1O2 (stereo partly shown)
[3]
  IC50: 450 ± 50 µM
[4]
  IC50: 110 ± 10 µM
[5]; HL-60, 72 h, read-out: Cytotoxicity IC50, HL60 Leukaemia
  IC50: 270 ± 15 µM
[6]; HT-29, 72 h, read-out: Cytotoxicity IC50, HT29 Colon
  IC50: 15 ± 5 µM
[7]; 72 h, read-out: Cytotoxicity IC50, WiDr Colon
  IC50: 33 ± 6 µM

## C[C@@]12C(=O)OC(=O)[C@]1(C)[C@H]1CC[C@@H]2O1 [drawing 2]
[3]
  IC50: 10 ± 1 µM
[4]
  IC50: 10 ± 2 µM
[5]; [16]
  IC50: 10 ± 2 µM
[6]; [17]
  IC50: 6.5 ± 0.5 µM
[7]; [18]
  IC50: 6.1 ± 0.5 µM

## O=C(O)[C@H](Cc1c[nH]c2ccccc12)N1C(=O)C2C3CCC(O3)C2C1=O (stereo partly shown) [Compound 13]
[2]; read-out: PP1 IC50
  IC50: 312 ± 153 µM

## O=C(O)[C@@H](Cc1ccccc1)N1C(=O)C2C3CCC(O3)C2C1=O (stereo partly shown) [Compound 6]
[2]; [15]
  IC50: > 1000 µM

## C[C@H](C(=O)O)N1C(=O)C2C3CCC(O3)C2C1=O (stereo partly shown) [Compound 4]
[8]
  PP2A inhibition, in words: marginal activity
[2]; [15]
  IC50: > 1000 µM

## CC(C)C[C@H](C(=O)O)N1C(=O)C2C3CCC(O3)C2C1=O (stereo partly shown) [Compound 8]
[2]; [15]
  IC50: > 1000 µM

## C[C@@](O)(/C=C/[C@H]1CC=CC(=O)O1)[C@@H](C[C@@H](O)\C=C/C=C\C=C\CO)OP(=O)(O)O [Fostriecin]
[9]; [14]
  IC50: 131 µM
[1]; [14]
  IC50: 3.4 nM

## NC(=O)CC[C@H](C(=O)O)N1C(=O)C2C3CCC(O3)C2C1=O (stereo partly shown) [Compound 18]
[2]; [15]
  IC50: 95 ± 5 µM

## CCOC(=O)C1C(C(=O)O)[C@@H]2CC[C@H]1O2 (stereo partly shown) [R = CH3CH2]
[2]; read-out: PP1 IC50
  IC50: 2.96 µM

## O=C(O)[C@H](Cc1ccccc1)N1C(=O)C2C3CCC(O3)C2C1=O (stereo partly shown) [Compound 7]
[2]; [15]
  IC50: > 1000 µM

## O=C1OC(=O)[C@H]2[C@@H]1[C@@H]1CC[C@H]2O1 [Compound 3, norcantharidin, reference compound]
[2]; [15]
  IC50: 5.31 ± 0.36 µM

## C[C@@H](C(=O)O)N1C(=O)C2C3CCC(O3)C2C1=O (stereo partly shown) [Compound 5]
[2]; [15]
  IC50: > 1000 µM

## C[C@@]12C(=O)OC(=O)[C@]1(C)[C@H]1CC[C@@H]2O1 [Compound 1, cantharidin]
[10]
  IC50: 6 to 18 µM
[11]
  Cell cycle distribution, S-phase: significant increased S-phase population

## O=C(O)C(Cc1ccc(O)cc1)N1C(=O)C2C3CCC(O3)C2C1=O (single isomer, unassigned) [Compound 17]
[2]; [15]
  IC50: 570 ± 330 µM

## COC[C@@H]([C@H](O)[C@H](O)C(=O)NCC[C@H](C)c1nc(/C=C/C[C@@H]2O[C@]3(C[C@@H](O)[C@@H]2C)O[C@H]([C@H](C[C@H](O)[C@H](C)[C@H](O)[C@H](C)/C=C(C)/C(C)=C/C=C/C(C)=C\C#N)OC)[C@H](OP(=O)(O)O)C3(C)C)co1)N(C)C [Calyculin A]
[9]
  IC50: 0.002 µM
[1]; [14]
  IC50: 0.5 nM

## O=C(O)[C@H](Cc1cnc[nH]1)N1C(=O)C2C3CCC(O3)C2C1=O (stereo partly shown) [Compound 15]
[2]; [15]
  IC50: 2.82 ± 0.6 µM
[2]; [19]
  IC50: 2.82 ± 0.6 µM
[5]; [20]
  IC50: 55 ± 24 µM
[12]
  IC50: 30 ± 14 µM
[13]
  IC50: 61 ± 30 µM
[6]; [21]
  IC50: 28 ± 10 µM

## CO[C@H]([C@H](O)CC(=O)[C@@H](C)[C@@H](O)CC[C@@H](C)[C@@H]1O[C@]2(CC[C@@H](C)[C@H](CC[C@H](C)C(C)=O)O2)CC[C@@H]1C)[C@H](OC(=O)C[C@@H](O)C1=C(C)C(=O)OC1=O)C(C)C [Tautomycin]
[9]; [14]
  IC50: 0.0003 µM
[1]; [14]
  IC50: 1 nM

## CSCC[C@@H](C(=O)O)N1C(=O)C2C3CCC(O3)C2C1=O (stereo partly shown) [Compound 19]
[2]; [15]
  IC50: > 1000 µM

## CC[C@H](C)[C@@H](C(=O)O)N1C(=O)C2C3CCC(O3)C2C1=O (stereo partly shown) [Compound 11]
[2]; [15]
  IC50: > 1000 µM

## O=C(O)C(Cc1ccc(O)cc1)N1C(=O)C2C3CCC(O3)C2C1=O (single isomer, unassigned) [Compound 16]
[2]; [15]
  IC50: 101 ± 34 µM

## C=C1C(=O)N[C@H](C)C(=O)N[C@@H](CC(C)C)C(=O)N[C@@H](C(=O)O)[C@H](C)C(=O)N[C@@H](CCCNC(=N)N)C(=O)N[C@@H](/C=C/C(C)=C/[C@H](C)[C@H](Cc2ccccc2)OC)[C@H](C)C(=O)N[C@@H](C(=O)O)CCC(=O)N1C [Microcystin LR] (R[Adda][d(γGlu)][NMeDha][dA]L[dAsp(3S-Me)]-OH; lactam N-7)
[9]
  IC50: 0.0017 µM
[1]
  IC50: 0.04 nM

## O=C(O)[C@@H](Cc1cnc[nH]1)N1C(=O)C2C3CCC(O3)C2C1=O (stereo partly shown) [Compound 14]
[2]; [15]
  IC50: 3.22 ± 0.7 µM
[2]; [19]
  IC50: 3.22 ± 0.7 µM
[5]; [20]
  IC50: 21 ± 13 µM
[12]
  IC50: 6 ± 1 µM
[13]
  IC50: 32 ± 12 µM
[6]; [21]
  IC50: 28 ± 9 µM

## CC(C)C[C@@H](C(=O)O)N1C(=O)C2C3CCC(O3)C2C1=O (stereo partly shown) [Compound 9]
[2]; [15]
  IC50: > 1000 µM

## O=C1OC(O)[C@@H]2[C@H]1[C@H]1CC[C@@H]2O1 (stereo partly shown)
[3]
  IC50: 454 ± 50 µM
[4]
  IC50: 333 ± 55 µM
[5]; [16]
  IC50: 393 ± 103 µM
[6]; [17]
  IC50: 14 ± 0.3 µM
[7]; [18]
  IC50: 15 ± 3 µM

## O=C(O)[C@@H](Cc1c[nH]c2ccccc12)N1C(=O)C2C3CCC(O3)C2C1=O (stereo partly shown) [Compound 12]
[2]; read-out: PP1 IC50
  IC50: 770 ± 146 µM
